Assay results reported in patent publication US20230103554A1, “TNFa SIGNALING [sequence] TUMOR-PROMOTING INFLAMMATION THAT CAN BE TARGETED TO THERAPY” (Baylor College of Medicine, priority 2020, published 2023).

Tests used:
Assay type in all cases: cell-based, human
CHLA-255-luc = assay: NB luminescence growth/viability in monocyte co-culture; settings: 10 μg/mL etanercept
Description: (§1) (FIG. 8A) Luciferase expressing CHLA-255-luc and SK-NAS-luc were cultured in 1-16,000 pg/mL rhTNF for 48 hours and viability of the cells was measured by luminescence. Data was normalized to untreated control and graphed as % Viability versus Log10 of TNF concentration.
(§2) (15A) TNFα level within co-culture supernatant was determined by TNFα ELISA. Mean TNFα concentration±SD of representative data from two monocyte donors run in triplicate. (FIG. 15B) Supernatant IL-6 levels were determined by ELISA. Mean IL-6 concentration±SD of representative data from two monocyte donors run in triplicate (FIG. 15C) Intracellular IκBα expression level within CD14+GD2− monocyte population was determined by flow cytometry and IκBα MFI was normalized to monocyte only control. Mean normalized IκBα MFI±SD and representative from experiments with two monocyte donors run in triplicate. (FIG. 15D) Intracellular IκBα expression level within CD14-GD2+NB population was determined by flow cytometry and IκBα MFI was normalized to NB only control. Mean normalized IκBαMFI±SD, representative from experiments with two monocyte donors run in triplicate. (FIG. 15E) Multiplex Luminex cytokine assay was performed on co-culture supernatants. […] NB luminescence was used to evaluate relative viability of cell line. Results are normalized mean luminescence±SD, n=6 replicates per condition. […] Cells undergoing multiple (2+) divisions were quantified as a percentage of total cells and normalized to NB (0) and Ctrl (1). […]
Monocytes were directly cultured with wild-type or TNF, TNFR1, TNFR2 KO NB cell lines in ULA plates for 24 hours. Activation of NF-kB in monocytes and NB was measured by flow cytometry and cytokine production measured by ELISA from co-culture supernatant. To evaluate the contact-dependence of monocyte activation by NB, monocytes were cultured in ULA plates with seven-day NB conditioned medium mixed 1:1 with complete monocyte medium for 24 hours and analyzed for IL-6 production. […] Luminescence was measured using a TECAN Spark plate reader (TECAN). […] CellTrace Violet expression was analyzed by flow cytometry.

SK-N-AS-luc = assay: NB luminescence viability in monocyte co-culture; settings: SK-N-AS-luc + monocytes, 10 μg/mL etanercept, 72 hours (FIG. 8B)
Description: as §1
Monocytes were directly cultured with wild-type or TNF, TNFR1, TNFR2 KO NB cell lines in ULA plates for 24 hours. Activation of NF-kB in monocytes and NB was measured by flow cytometry and cytokine production measured by ELISA from co-culture supernatant. To evaluate the contact-dependence of monocyte activation by NB, monocytes were cultured in ULA plates with seven-day NB conditioned medium mixed 1:1 with complete monocyte medium for 24 hours and analyzed for IL-6 production. […] Luminescence was measured using a TECAN Spark plate reader (TECAN). To evaluate changes in proliferation, NB was pulsed for 10 minutes in CellTrace Violet (2 μM, Invitrogen) and seeded at 100,000 cells per well in a 12-well tissue culture-treated plate. Monocytes were added directly to the NB monolayer at a density of 100,000 per well and incubated for four days. CellTrace Violet expression was analyzed by flow cytometry.

CHLA-255 = assay: CellTrace Violet proliferation of NB co-cultured with monocytes; settings: CHLA-255 CTV-pulsed + monocytes, 10 μg/mL etanercept, four days
Description: as §2, with “control.” for “control. Mean normalized IκBαMFI±SD, representative from experiments with two monocyte donors run in triplicate. (FIG. 15E) Multiplex Luminex cytokine assay was performed on co-culture supernatants.”
Monocytes were directly cultured with wild-type or TNF, TNFR1, TNFR2 KO NB cell lines in ULA plates for 24 hours. Activation of NF-kB in monocytes and NB was measured by flow cytometry and cytokine production measured by ELISA from co-culture supernatant. […] Luminescence was measured using a TECAN Spark plate reader (TECAN). […]

[1] = test system: CHLA-255 monolayer and monocytes; assay: Adherence of CD14+ monocytes to NB monolayer; settings: CHLA-255, 10 μg/mL etanercept, four days
Description: Cultures were imaged at 10× magnification using Nikon DS-Fi1/Elements Software. Scale bar 50 μm. (FIG. 26B) CHLA-255 was grown to 25% confluence in 12-well tissue culture plates and overlaid with freshly isolated human monocytes. […] Non-adherent cells were gently washed with PBS before mechanical dissociation to release adherent cells. Adherent CD14+ monocytes were quantified relative to NB from samples run in triplicate. **** p<0.0001;

etanercept
monocyte-induced proliferation above baseline (luminescence) (CHLA-255-luc; CHLA-255-luc + monocytes, 72 hours (FIG. 8B)): reduces this
NB luminescence (growth/viability) increase induced by monocytes (CHLA-255-luc; CHLA-255-luc + monocytes, 72 hours, vs IgG control (FIG. 15F)): completely abrogated the effect of monocytes on NB cells
effect of monocyte-induced TNF signaling on NB cells (CHLA-255-luc; CHLA-255-luc and SK-N-AS-luc + monocytes, 72 hours (FIG. 8B)): reversed the effect of monocyte-induced TNF signaling on NB cells
cell death caused by monocyte-produced TNF (luminescence) (SK-N-AS-luc): rescued
reduction of monocyte-induced increase in NB cells undergoing multiple divisions (CHLA-255): 56%
adherence of CD14+ monocytes to NB monolayer [1]: decreased the adherence
